Reference: US20190246658A1, “METHODS OF HANDLING PAPAYA” (AGROFRESH INC., priority 2013, published 2019)

Tests used:
Type in all cases: in vivo, papaya
[1] = system: Papayas ‘Golden’; test: Example 1: pulp firmness, internal (FTA); conditions: for Pulp Firmness - Internal: 100 ppb of MCP
Protocol: (§1) Papayas ‘Golden’ were harvested in Linhares—Espírito Santo—Brazil. The harvested fruits were packed in MAP Bags and put in cardboard boxes.
(§2) The appropriate weight of papayas was placed in each bag after harvest. Bags were placed in the same cardboard boxes used to export the fruits. Papayas then were cold stored at (11° C.) at the Laboratory.
(§3) The Test Protocol that was used was as follows. 36 MAP bags were packed. Each bag held approximately 3.8 kg (8.4 lb) of papayas. One such bag was packed in each cardboard box. Total weight of papayas in MAP bags was approximately 137 kg. Approximately 91 kg of papayas were placed into cardboard boxes identical to those used for the MAP bags.
(§4) The MAP-packaged papayas were packaged as follows: Nine fruits, approximately 3.8 kg were carefully placed into microperforated bags, and the bags were sealed by twisting the open side of the bag, folding down the twisted end, and placing a rubber band around the twisted and folded end of the bag.
(§5) All papayas were kept at cold temperature (11° C.) during 27 days and after that the fruits (packed in MAP bags or not) were put in room temperature (22° C.) during 8 days.
(§6) One day after harvest, when the papayas had around 25 lbf of average firmness, each treatment set was marked, placed in a hermetical chamber at cold temperature (11° C.). All chambers were of equal size and packed the same way. Treatment was for 12 hours. In the chambers for the 3 “MCP” treatment groups, at the beginning of the treatment period, SmartFresh™ were placed in the chamber. The amount of SmartFresh™ was chosen to achieve the indicated concentration of 1-methylcyclopropene in the atmosphere of the chamber.
(§7) Evaluation for skin color and firmness was as follows. Day “zero” was the day the papayas were removed from the chamber and placed in storage.
(§8) For the Pulp Firmness evaluation two measurements where done, one for External Firmness and another for Internal Firmness. For External Firmness, the papayas had the skin removed with a peeler and the pulp firmness was measured with a Firmness Texture Analyzer (FTA) with a probe of 8 mm. For Internal Firmness, the papayas were cut transversally and a measurement close to the center of the fruit was taken with the FTA.

[2] = system: Papayas ‘Golden’; test: Example 1: pulp firmness, external (FTA, 8 mm probe); conditions: 100 ppb of MCP
Protocol: as §1, §2, §3, §4, §5, §6, §7, §8

[3] = system: Papayas ‘Golden’; test: Example 2 (yellow stage): pulp firmness, external; conditions: for Pulp Firmness - External: 500 ppb of MCP
Protocol: A similar test to Example 1 but papayas are tested during their yellow stage. Papayas ‘Golden’ were harvested in Linhares—Espírito Santo—Brazil. The fruits were packed in MAP Bags and put in cardboard boxes.
The fruits were first left at room temperature during 3 days to reach yellow maturity stage.
After that the appropriate weight of papayas was placed in each bag after harvest. Bags were placed in the same cardboard boxes used to export the fruits. Papayas then were cold stored at (11° C.) at the Laboratory.
as §3, with “18” for “36”, “68” for “137”, “68” for “91”
as §4
All papayas were kept at cold temperature (11° C.) during 26 days and after that the fruits (packed in MAP bags or not) were put in room temperature (22° C.) during 8 days.
After the 3 days for maturation at room temperature, when the papayas had around 5 lbf of average firmness, each treatment set was marked, placed in a hermetical chamber at cold temperature (11° C.). All chambers were of equal size and packed the same way. Treatment was for 12 hr. In the chambers for the 2 “MCP” treatment groups, at the beginning of the treatment period, SmartFresh™ were placed in the chamber. The amount of SmartFresh™ was chosen to achieve the indicated concentration of 1-methylcyclopropene in the atmosphere of the chamber.
as §7
as §8, with “were” for “where”

[4] = MAP bag, 27 days at 11° C. then 0 days @ 22° C.
[5] = MAP bag, 27 days at 11° C. then 4 days @ 22° C.
[6] = MAP bag, 27 days at 11° C. then 8 days @ 22° C.
[7] = No Bag, 27 days at 11° C. then 0 days @ 22° C.
[8] = No Bag, 27 days at 11° C. then 4 days @ 22° C.
[9] = No Bag, 27 days at 11° C. then 8 days @ 22° C.

CC1=CC1 [MCP, 1-methylcyclopropene]
internal firmness during shelf-life, in words ([1]; 1-MCP alone (no MAP)): too high internal firmness
Pulp Firmness - Internal [1, 4]: 3.3 lbf
Pulp Firmness - Internal [1, 5]: 3.2 lbf
Pulp Firmness - Internal [1, 6]: 1.5 lbf
Pulp Firmness - Internal [1, 7]: 16.9 lbf
Pulp Firmness - Internal [1, 8]: 12.2 lbf
Pulp Firmness - Internal [1, 9]: 3.2 lbf
Pulp Firmness - External [2, 4]: 17.1 lbf
Pulp Firmness - External [2, 5]: 17.0 lbf
Pulp Firmness - External [2, 6]: 6.2 lbf
Pulp Firmness - External [2, 7]: 25.0 lbf
Pulp Firmness - External [2, 8]: 23.4 lbf
Pulp Firmness - External [2, 9]: 7.8 lbf
external firmness during shelf-life, in words ([3]; 1-MCP alone, compared to the present invention (1-MCP + MAP)): lower efficiency to maintain external firmness
Pulp Firmness - External ([3]; MAP bag, 26 days at 11° C. then 0 days @ 22° C.): 3.84 lbf
Pulp Firmness - External ([3]; MAP bag, 26 days at 11° C. then 4 days @ 22° C.): 1.98 lbf
Pulp Firmness - External ([3]; MAP bag, 26 days at 11° C. then 8 days @ 22° C.): 1.30 lbf
Pulp Firmness - External ([3]; No Bag, 26 days at 11° C. then 0 days @ 22° C.): 3.03 lbf
Pulp Firmness - External ([3]; No Bag, 26 days at 11° C. then 4 days @ 22° C.): 1.88 lbf
Pulp Firmness - External ([3]; No Bag, 26 days at 11° C. then 8 days @ 22° C.): 1.11 lbf
